Tests used:
[1] = test system: PANC-1 cells; test: Soft agar colony growth, PANC-1; format: cell-based, human; conditions: PANC-1, 150 μM Asc-S
Method: Soft agar experiments: To test the hypothesis that treatment of PANC-1 cells in culture with Asc-S reverses their transformed phenotype, the growth of PANC-1 was assessed in soft agar. PANC-1 cells were seeded at a density of 3×10^3/35 mm plate in 10% serum on a top layer of 0.3% agar and a bottom layer of 1% agar with and without the addition of 150 μM of Asc-S for 24 hours. The Asc-S was added to the top layer every day. Colonies greater than 125 microns in diameter (or ten cells) were counted at weekly intervals for 14-21 days. The clonogenicity was determined in three independent experiments comprising six replicates.

[2] = test system: PANC-1 cells; test: Apoptosis by in situ TUNEL assay, PANC-1; format: cell-based, human; conditions: 150 μM, 24 hours
Method: Detection of Apoptosis By In Situ Hybridization Using TUNEL Reaction: Apoptosis was determined by TdT-mediated dUTP nick end labeling (TUNEL) using an in situ cell death detection kit (Boehringer Mannheim, Indianapolis, Ind.). Asc-S treated and untreated PANC-1 cells were trypsinized and cytospin preparations were obtained. Cells were fixed with paraformaldehyde (4% in PBS, pH 7.4). After a rinse in PBS, the slides were incubated in permeabilization solution. Slides were cross-reacted with TUNEL reaction mixture for 60 minutes at 37° C. in a humidified chamber. Slides were thoroughly rinsed and reacted with alkaline phosphatase substrate solution for five to ten minutes (Vector Laboratories, Burlington, Mass.). The slides were analyzed under light microscope. These experiments were performed in duplicate.

[3] = test system: PANC-1 cells; test: MTT cell growth and viability assay, PANC-1; format: cell-based, human; conditions: 50-175 μM Asc-S, 24 hours, MEM+10% FBS or serum free MEM+15 nM IGF-1
Method: PANC-1 Cell Culture: The human pancreatic ductal adenocarcinoma cell line PANC-1 was obtained from the American Type Culture Collection (Rockville, Md.). PANC-1 cells were cultured for 24 hours in Minimum Essential Medium (MEM) (Whitaker M A Bioproducts, Walkersville, Md.) supplemented with 10% fetal bovine serum (FBS) (Hyclone Laboratories, Logan, Utah) or serum free MEM+15 nM human recombinant IGF-1, penicillin (50 U/ml), streptomycin (50 μg/ml) and 1.0 mM L-glutamine.
Cell Growth and Vitality: The effect of Asc-S on PANC-1 and PC-1 cell growth and viability was evaluated by 3-(4,5-dimethylthiazol-2yl)-2,5-diphenyl-tetrazoliumbromide (MTT) (Sigma Chemical Co., St. Louis, Md.) assay and the details of the procedure are as described earlier (Naidu et al., 1993a) PANC-1 cells were seeded at 2.5×10^4 viable cells well in 0.1 ml MEM supplemented with 10% FBS or serum free MEM with 15 nM human recombinant IGF-1 in 96 multiwell tissue culture plates. The following day when the cells were nearly confluent, the medium was replaced with fresh medium and 50, 75, 100, 125, 150, 175 and 200 μM Asc-S were added and incubated in a CO2 incubator at 37° C. for 24 hours with respective untreated controls.

[4] = test system: PDGF-R; test: PDGF-R expression by Western blot, PANC-1; format: cell-based, human; conditions: 150 μM, 24 hours
[5] = test system: c-Src; test: c-Src expression by Western immunoblot, T98G; format: cell-based, human; conditions: 100 μM, 24 h
Method: The Src oncogene product was the first to be identified as tyrosine kinase. Today the “Src-family” of non-receptor tyrosine kinases is known to be represented in every cell type and signaling system. […] This observation is further corroborated with the data on the dose and time dependent inhibition of IGF1-R described herein.
The T98G cells are exponentially grown in MEM with 10 nM human recombinant IGF-1 (Bachem California, Torrance, Calif.) or MEM with 10% FBS. The cells were disrupted in cold lysis buffer (10 μM terra sodium pyrophosphate, 20 mM HEPES, 1% Triton X-100, 100 mM NaCl, 2 ug/ml aprotinin, 2 μg/ml leupeptin and 100 μg/ml of PMSF). The crude lysates were centrifuged and protein concentration was determined by using Pierce BCA Protein Assay kit. […] Rabbit anti-human polyclonal primary antibodies to c-Src (pp60^Src (aa403-421) (Upstate Biotechnology, Lake Placid, N.Y.) were incubated for one hour at room temperature in TBST and 1% nonfat milk. The blots were then washed and incubated with anti-rabbit horseradish peroxidase conjugated secondary antibody (Oncogene Science, Inc. Uniondale, N.Y.). Antigen bound to nitrocellulose membrane was detected with the ECL system (Amersham Corp., Arlington Heights, Ill.). FIG. 9A was a positive control for c-Src from A431 cell lysate, FIGS. 9B and C were untreated and 100 μM […] treated T98G cell lysates respectively.

[6] = mice; cited from earlier work
[7] = test system: IGF1-R; test: IGF1-R expression by Western immunoblotting, PANC-1; format: cell-based, human; conditions: 150 μM, 24 hours, vs untreated control
Method: PANC-1 cells were cultured for 24 hours in MEM+10% FBS and treated with 150 μM Asc-S for 24 hours, Asc-S treated and untreated (control). PANC-1 cells were analyzed by Western immunoblotting as follows: Cell lysates of treated and non-treated PANC-1 cells were obtained. The lysates were sonicated, centrifuged and protein concentration was determined with Pierce BCA protein kit (Pierce Laboratories). A 20 μg of protein was loaded and resolved at 4% to 15% polyacrylamide gradient gel by sodium dodecyl sulfate-polyacrylamide gel electrophoresis (SDS-PAGE) and electroblotted onto a nitrocellulose membrane […]. The membrane was immunoblotted with mouse anti-human IGF1-R antibodies to cross-react the 85 kDa β-subunit of the IGF1-R (Pharmingen, San Diego, Calif.) followed by anti-mouse horseradish peroxidase conjugated secondary antibody (ECL, Amersham Corporation, Arlington Heights, Ill.). Antigen bound to nitrocellulose membrane was detected with the ECL system (Amersham Corporation, Arlington Heights, Ill.). P6 cells (3T3 fibroblast cells, transfected with a CVN plasmid constituitively expressing human IGF1-R) were used as the positive control.
In additional experiments PANC-1 cells were cultured in MEM+10% FBS and treated with different concentrations of Asc-S (e.g. 50, 75, 100, 125, 150 and 200 μM) for 24 hours. […]

CCCCCCCCCCCCCCCCCC(=O)OC[C@H](O)[C@H]1OC(=O)C(O)=C1O [Asc-S, Ascorbyl stearate]
soft agar colonies, 1st week ([1]; 1st week): 0 colonies
soft agar colonies, 2nd week ([1]; 2nd week): 15 colonies
soft agar colonies, 3rd week ([1]; third week): 50 colonies
apoptosis (in situ TUNEL), PANC-1 [2]: significant increase in apoptosis
PANC-1 cell proliferation (MTT assay) [3]: inhibited cell proliferation in a dose dependent manner
PDGF-R expression, PANC-1 [4]: did not affect
c-Src expression, T98G cells [5]: did not affect
LD50 [6]: 25000 mg/kg
IGF1-R expression, PANC-1 cells (Western blotting) [7]: significantly lower number of receptors
